Measurements as given in patent publication US20080038276A1, “INHIBITORS OF PLASMA KALLIKREIN” (Activesite Pharmaceuticals, Inc., priority 2006, published 2008).
Read-outs that look alike come from different tables or passages of the source. Square brackets hold non-standard residues; d marks the D form. * marks the point of attachment. CH2Cl = ClC*

B1: plasmin: exogenous plasmin added to plasma, mimicking a fibrinolytic setting (protein, UniProt P00747 20-580; P00747 581-810, looked up)
Plasmin heavy chain A: EPLDDYVNTQGASLFSVTKKQLGAGSIEECAAKCEEDEEFTCRAFQYHSKEQQCVIMAENRKSSIIIRMRDVVLFEKKVYLSECKTGNGKNYRGTMSKTKNGITCQKWSSTSPHRPRFSPATHPSEGLEENYCRNPDNDPQGPWCYTTDPEKRYDYCDILECEEECMHCSGENYDGKISKTMSGLECQAWDSQSPHAHGYIPSKFPNKNLKKNYCRNPDRELRPWCFTTDPNKRWELCDIPRCTTPPPSSGPTYQCLKGTGENYRGNVAVTVSGHTCQHWSAQTPHTHNRTPENFPCKNLDENYCRNPDGKRAPWCHTTNSQVRWEYCKIPSCDSSPVSTEQLAPTAPPELTPVVQDCYHGDGQSYRGTSSTTTTGKKCQSWSSMTPHRHQKTPENYPNAGLTMNYCRNPDADKGPWCFTTDPSVRWEYCNLKKCSGTEASVVAPPPVVLLPDVETPSEEDCMFGNGKGYRGKRATTVTGTPCQDWAAQEPHRHSIFTPETNPRAGLEKNYCRNPDGDVGGPWCYTTNPRKLYDYCDVPQCAAPSFDCGKPQVEPKKCPGR
Plasmin light chain B: VVGGCVAHPHSWPWQVSLRTRFGMHFCGGTLISPEWVLTAAHCLEKSPRPSSYKVILGAHQEVNLEPHVQEIEVSRLFLEPTRKDIALLKLSSPAVITDKVIPACLPSPNYVVADRTECFITGWGETQGTFGAGLLKEAQLPVIENKVCNRYEFLNGRVQSTELCAGHLAGGTDSCQGDSGGPLVCFEKDKYILQGVTSWGLGCARPNKPGVYVRVSRFVTWIEGVMRNN
modifications: Plasmin
notes: exogenous plasmin added to plasma, mimicking a fibrinolytic setting

Columns and labels:
[1] = molecular target: T1, Human plasma kallikrein (PK) (Homo sapiens, UniProt P03952); assay: Inhibition of human plasma kallikrein amidolytic activity (H-D-Pro-Phe-Arg-pNA cleavage, A405); format: biochemical
T1 construct: purchased Haemtech Technologies (Essex Junction, Vt.)
T1 sequence (P03952 391-638 limits assumed): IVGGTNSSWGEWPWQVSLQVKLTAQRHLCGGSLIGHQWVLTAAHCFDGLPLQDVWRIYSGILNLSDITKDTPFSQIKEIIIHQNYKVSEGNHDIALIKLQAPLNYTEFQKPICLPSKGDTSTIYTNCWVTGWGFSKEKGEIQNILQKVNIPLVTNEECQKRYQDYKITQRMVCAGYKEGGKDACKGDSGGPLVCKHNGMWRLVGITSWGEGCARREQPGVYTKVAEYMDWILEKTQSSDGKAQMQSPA
T1 sequence (P03952 20-390 partner limits assumed): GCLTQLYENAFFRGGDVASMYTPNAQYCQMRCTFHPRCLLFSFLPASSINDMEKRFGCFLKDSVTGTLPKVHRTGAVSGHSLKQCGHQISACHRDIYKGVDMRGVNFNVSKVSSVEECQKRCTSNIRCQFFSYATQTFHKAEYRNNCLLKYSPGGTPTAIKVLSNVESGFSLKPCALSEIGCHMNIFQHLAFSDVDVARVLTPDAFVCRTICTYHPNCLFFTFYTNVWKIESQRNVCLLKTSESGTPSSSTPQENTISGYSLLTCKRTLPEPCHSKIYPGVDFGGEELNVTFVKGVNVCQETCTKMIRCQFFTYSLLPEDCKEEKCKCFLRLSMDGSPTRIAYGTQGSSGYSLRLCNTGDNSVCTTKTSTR
Description: Human plasma kallikrein (PK) was obtained from Haemtech Technologies (Essex Junction, Vt.). The enzymatic activity of PK was assayed using the synthetic peptide substrate H-D-Pro-Phe-Arg-pNA (Bachem, Inc., Switzerland) with the cleavage of the substrate by the enzyme resulting in an increase in A405, measured using a Molecular Devices Vmax Kinetic Microplate Reader. The uninhibited (control) activity of PK was determined by adding 190 μl of PK solution (1 nM in 0.05 M HEPES, pH 7.5, 0.01% Triton X-100) to 10 μl of H-D-Pro-Phe-Arg-pNA (2 mM in DMSO) in individual microtiter plate wells, mixed immediately by shaking, and the rate of increase in A405 determined over 120-180 sec. In parallel, compounds of the present invention were mixed in separate wells with the synthetic substrate to attain final concentrations of between 0.01-10 μM in the final 200 μl reaction mixture, and the reaction initiated by the addition of 190 μl of the PK solution.
The highest concentration of either compound tested was 10 μM.

[2] = system: LPS or bacterial induced sepsis in animals; details: in vivo; cited from earlier work
[3] = system: plasmin-activated coagulation in plasma; assay: Plasmin-activated coagulation of plasma (plasmin + 6.25% Actin FS), time to coagulation; design: species or system human; details: for relative coagulation time: 50% plasma, 6.25% Actin FS, control 1.00
Description: In the clotting paradigm utilized in Example 3, plasma is mixed 1:1 with commercially formulated Actin FS. Thus, 50% (v/v) Actin FS is the maximum amount of activator that can be added while maintaining the amount of plasma constant at 50% of the incubation mixture. Since the clotting time in normal plasma is dependent on the amount of Actin FS present in the incubation mixture, these conditions would by definition lead to the shortest time to coagulation mediated by the intrinsic pathway in this paradigm. Lowering the amount of contact activator leads to a decrease in the amount of PK activated, thus reducing the amount of thrombin generated and slowing the time to coagulation (data not shown). Therefore, in order to determine whether addition of exogenous plasmin (mimicking a fibrinolytic setting) can shorten time to coagulation, the amount of Actin FS reagent added to the plasma (kept constant at 50% of the final incubation mixture) was lowered so as to attain 6.25% (final v/v).
This provides direct evidence that plasmin can have a thrombogenic effect when added to plasma in the presence of a small amount of contact activator.
The role for PK was established by evaluating deficiencies in PK, as well as by using two specific inhibitors of the enzymes. In order to determine whether blocking PK via a specific monoclonal antibody (MAb) would also be effective in inhibiting coagulation in either of the two paradigms described here, and thus provide additional validation for the invention, MAb 13G11, which has been previously characterized as being specific for PK (Veloso et al, (1987) Blood, 70, 1053-1062), was tested in each of the coagulation paradigms described in Examples 2 and 3. MAb 13G11 (obtained from GeneTex, San Antonio, Tex.) was added at a final concentration of 0.036 mg/ml in the 50% plasma—50% activator mix in each paradigm. This calculates to an approximately 2-fold molar excess over the amount of PK that would be present in the plasma—activator mixture, based on the literature reference of Veloso et al, (1987), Blood, 70, 1053-1062. Control samples were treated with 0.036 mg/ml of an isotype-matched control IgG1 (also obtained from GeneTex). When plasma was activated using 50% Actin FS (FIG. 5), MAb 13G11 prolonged time to coagulation by 100% (45% of the maximal effect obtained with PK-deficient plasma), and, when plasma was activated using 200 nM plasmin+6.25% Actin FS (FIG. 6), prolonged time to coagulation by 32% (40% of the maximal effect obtained with PK-deficient plasma).

[4] = apparent inhibition constant, 1 nM PK, pH 7.5, read-out: PK Kiapp
[5] = Table 4 inhibition constants, read-out: Ki

Molecule	Ki [1, 4] [nM]	other results
Cc1cc(C(=O)NCc2ccc(C(=N)N)cc2)c(C)n1-c1ccccc1 [ASP-576, 2,5-Dimethyl-1-phenyl-1H-pyrrole-3-carboxylic acid 4-carbamimidoyl-benzylamide]	40	
N=C(N)c1ccc(CNC(=O)c2cnn(Cc3ccccc3Cl)c2)cc1 [ASP-582, 1-(2-Chloro-benzyl)-1H-pyrazole-4-carboxylic acid 4-carbamimidoyl-benzylamide]	470	
N=C(N)c1ccc(CNC(=O)c2csc3ccccc23)cc1 [ASP-491, Benzo[b]thiophene-3-carboxylic acid 4-carbamimidoyl-benzylamide]	2110	
N=C(N)c1ccc(CNC(=O)c2cnn(Cc3ccccc3)c2)cc1 (single isomer, unassigned) [compound 3]		Ki [1, 5]: 150 nM
Cc1cc(C(=O)NCc2ccc(C(=N)N)cc2)c(C)n1Cc1ccccc1 [ASP-580, 1-Benzyl-2,5-dimethyl-1H-pyrrole-3-carboxylic acid 4-carbamimidoyl-benzylamide]	30	
N=C(N)c1ccc(CNC(=O)c2cnn(-c3ccccc3)c2)cc1 [compound 4]		Ki [1, 5]: 1000 nM
N=C(N)c1ccc(CNC(=O)c2ccc(-c3ccccc3)s2)cc1 [ASP-523, 5-Phenyl-thiophene-2-carboxylic acid 4-carbamimidoyl-benzylamide]	7660	
Cc1nn(Cc2ccccc2)c(C)c1C(=O)NCc1ccc(C(=N)N)cc1 [ASP-577, 1-Benzyl-3,5-dimethyl-1H-pyrazole-4-carboxylic acid 4-carbamimidoyl-benzylamide]	1130	
H-[dP]-Phe-Arg-CH2Cl [reference compound]		vascular permeability in multiple organs and lesions [2]: reduce
N=C(N)c1ccc(CNC(=O)c2cc3ccccc3o2)cc1 [ASP-485, Benzofuran-2-carboxylic acid 4-carbamimidoyl-benzylamide]	870	
N=C(N)c1ccc(CNC(=O)c2cn(S(=O)(=O)c3ccccc3)c3ccccc23)cc1 (single isomer, unassigned) [compound 2]		Ki [1, 5]: 30 nM
N=C(N)c1ccc(CNC(=O)c2cn(Cc3ccccc3)c3ccccc23)cc1 [ASP-381, 1-Benzyl-1H-indole-3-carboxylic acid 4-carbamimidoyl-benzylamide]		Ki ([1]; PK Kiapp, apparent inhibition constant, 1 nM PK, pH 7.5): 240 nM
N=C(N)c1ccc(CNC(=O)c2c[nH]c3ccccc23)cc1 [ASP-493, 1H-Indole-3-carboxylic acid 4-carbamimidoyl-benzylamide]	2450	
N=C(N)c1ccc(CNC(=O)c2cc3ccccc3[nH]2)cc1 [ASP-484, 1H-Indole-2-carboxylic acid 4-carbamimidoyl-benzylamide]	2520	
N=C(N)c1ccc(CNC(=O)c2cn(Cc3ccc(F)cc3)nn2)cc1 [ASP-559, 1-(4-Fluoro-benzyl)-1H-1,2,3-triazole-4-carboxylic acid 4-carbamimidoyl-benzylamide]	8090	
N=C(N)c1ccc(CNC(=O)c2cnn(-c3ccccc3)c2)cc1 [ASP-445, 1-Phenyl-1H-pyrazole-4-carboxylic acid 4-carbamimidoyl-benzylamide]	1430	
N=C(N)c1ccc(CNC(=O)c2cn(S(=O)(=O)c3ccccc3)c3ccccc23)cc1 [ASP-383, 1-Benzenesulfonyl-1H-indole-3-carboxylic acid 4-carbamimidoyl-benzylamide]	170	
Cc1nn(Cc2c(Cl)cccc2Cl)c(Cl)c1C(=O)NCc1ccc(C(=N)N)cc1 [ASP-579, 5-Chloro-1-(2,6-dichloro-benzyl)-3-methyl-1H-pyrazole-4-carboxylic acid 4-carbamimidoyl-benzylamide]	1190	
Cc1oc(-c2ccccc2)cc1C(=O)NCc1ccc(C(=N)N)cc1 [ASP-466, 2-Methyl-5-phenyl-furan-3-carboxylic acid 4-carbamimidoyl-benzylamide]	1290	
Cc1cc(C(=O)NCc2ccc(C(=N)N)cc2)c(C)n1CC(F)(F)F [ASP-581, 2,5-Dimethyl-1-(2,2,2-trifluoro-ethyl)-1H-pyrrole-3-carboxylic acid 4-carbamimidoyl-benzylamide]	410	
N=C(N)c1ccc(CNC(=O)c2ccc(-c3ccccn3)s2)cc1 [ASP-525, 5-Pyridin-2-yl-thiophene-2-carboxylic acid 4-carbamimidoyl-benzylamide]	20600	
N=C(N)c1ccc(CNC(=O)c2cn(Cc3ccccc3)c3ccccc23)cc1 [compound 1]		Ki [1, 5]: 80 nM
Cc1c(C(=O)NCc2ccc(C(=N)N)cc2)nnn1Cc1ccc(Br)cc1 [ASP-558, 1-(4-Bromo-benzyl)-5-methyl-1H-1,2,3-triazole-4-carboxylic acid 4-carbamimidoyl-benzylamide]	2620	
Cc1nn(Cc2ccc(F)cc2)c(Cl)c1C(=O)NCc1ccc(C(=N)N)cc1 [ASP-583, 5-Chloro-1-(4-fluoro-benzyl)-3-methyl-1H-pyrazole-4-carboxylic acid 4-carbamimidoyl-benzylamide]	2380	
Cc1nn(Cc2ccccc2Cl)c(C)c1C(=O)NCc1ccc(C(=N)N)cc1 [ASP-578, 1-(2-Chloro-benzyl)-3,5-dimethyl-1H-pyrazole-4-carboxylic acid 4-carbamimidoyl-benzylamide]	1640	
Cc1nc(-c2ccccc2)sc1C(=O)NCc1ccc(C(=N)N)cc1 [ASP-373, 4-Methyl-2-phenyl-thiazole-5-carboxylic acid 4-carbamimidoyl-benzylamide]	8870	
N=C(N)c1ccc(CNC(=O)c2cc3ccccc3s2)cc1 [ASP-486, Benzo[b]thiophene-2-carboxylic acid 4-carbamimidoyl-benzylamide]	1570	
B1		relative coagulation time ([3]; 100 nM plasmin): 0.74; relative coagulation time ([3]; 200 nM plasmin): 0.65; relative time to coagulation ([3]; 200 nM plasmin, absence of any Actin FS): 4.0
